SMILES strings stand for the structures.

The text below walks through data of patent US10407409B2, “6-(5-hydroxy-1H-pyrazol-1-yl)nicotinamide inhibitors of PHD” (Takeda Pharmaceutical Company Limited, priority 2013, dated 2019).

For assay [1], the target named is PHD2 enzyme (residues 181-417) (Homo sapiens (Human), UniProt Q9GZT9). Put plainly: Inhibition of PHD enzyme (LC/MS peptide hydroxylation assay). Format: biochemical. Particulars: PHD2 (residues 181-417) 5 nM, 60 min pre-incubation, -log(IC50), IC50 molar; for IC50: read-out: PHD Inhibition (pIC50) (converted). In a few lines: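 Hydroxylated peptide quantified by LC/MS after 60 min turnover of 1 uM biotinylated peptide with 2 uM 2-oxoglutarate and 1 mM ascorbate, stopped by excess tight-binding inhibitor. Beforehand, 5 nM enzyme and compound were preincubated 60 min at RT, pH 7.3 HEPES/KCl/TCEP/FeCl2/BSA buffer. Values as pIC50 (−log molar IC50).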
Chain of PHD2 enzyme (residues 181-417) (Q9GZT9 181-417): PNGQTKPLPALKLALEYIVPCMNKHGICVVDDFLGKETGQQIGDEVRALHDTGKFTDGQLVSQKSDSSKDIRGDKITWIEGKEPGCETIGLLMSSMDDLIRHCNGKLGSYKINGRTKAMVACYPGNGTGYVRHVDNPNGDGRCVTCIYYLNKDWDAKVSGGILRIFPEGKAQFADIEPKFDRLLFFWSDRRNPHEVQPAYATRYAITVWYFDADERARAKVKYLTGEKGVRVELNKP

Assay [2] relates to HIF1a protein in H9c2 rat cardiomyocytes. The assay is described as follows: Cell-based HIF-alpha stabilization assay (inhibition of PHD in cells). Particulars: Rattus norvegicus, H9c2, 24 h, 24 hrs compound incubation, HIF1a protein by ELISA, read-out: Inhibition of PHD in cells (pEC50) (converted). In outline: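 HIF1a stabilization was measured by ELISA on lysates of H9c2 rat cardiomyocytes after 24 h exposure to 11 serial compound concentrations, expressed relative to the desferrioxamine maximum. Curve fits gave EC50. EC50pos denotes the concentration producing half the desferrioxamine maximal response.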

For `COCCNC(=O)c1ccc(-n2ncc(-c3ccc(C#N)cc3)c2O)nc1` [Example 152, 6-(4-(4-cyanophenyl)-5-hydroxy-1H-pyrazol-1-yl)-N-(2-methoxyethyl)nicotinamide], the “PHD Inhibition (pIC50)” value in assay [1] was 7.6. Further, in assay [2], the EC50 is 2.04 µM.
For the molecule `Cc1cc(C#N)ccc1-c1cnn(-c2ccc(C(=O)N3CCN(C)CC(F)(F)C3)cn2)c1O` [Example 299, 4-(1-(5-(6,6-difluoro-4-methyl-1,4-diazepane-1-carbonyl)pyridin-2-yl)-5-hydroxy-1H-pyrazol-4-yl)-3-methylbenzonitrile], in assay [1], the “PHD Inhibition (pIC50)” value is reported as 8.46. The EC50 in assay [2] was 1.05 µM.
Regarding `Cc1cc(C#N)c(F)cc1-c1cnn(-c2ccc(C(=O)N3CCN(C)CC3)cn2)c1O` [Example 396, 2-fluoro-4-(5-hydroxy-1-(5-(4-methylpiperazine-1-carbonyl)pyridin-2-yl)-1H-pyrazol-4-yl)-5-methylbenzonitrile], the “PHD Inhibition (pIC50)” value in assay [1] stood at 8.59. Also, the EC50 in assay [2] was 2.09 µM.
`Cc1cc(C#N)ccc1-c1cnn(-c2ccc(C(=O)N(C)C3CCN(C)C3)cn2)c1O` (stereo not drawn) [Example 368, 6-(4-(4-cyano-2-methylphenyl)-5-hydroxy-1H-pyrazol-1-yl)-N-methyl-N-(1-methylpyrrolidin-3-yl)nicotinamide]: the “PHD Inhibition (pIC50)” value in assay [1] was 7.89. For the same molecule, the EC50 in assay [2] was 0.575 µM.
As for `Cc1cc(-n2ncc(-c3ccc(C#N)cc3)c2O)ncc1C(=O)NC1CC1` [Example 275, 6-(4-(4-cyanophenyl)-5-hydroxy-1H-pyrazol-1-yl)-N-cyclopropyl-4-methylnicotinamide], in assay [1], the “PHD Inhibition (pIC50)” value stood at 7.03. Also, the EC50 in assay [2] is 3.8 µM.
In the case of `CCN1CCN(C(=O)c2ccc(-n3ncc(-c4ccc(C#N)cc4C)c3O)nc2)[C@H](C)C1` [Example 434, (R)-4-(1-(5-(4-ethyl-2-methylpiperazine-1-carbonyl)pyridin-2-yl)-5-hydroxy-1H-pyrazol-4-yl)-3-methylbenzonitrile], in assay [1], the “PHD Inhibition (pIC50)” value is recorded as 8.20. For the same molecule, the EC50 in assay [2] is 1.29 µM.
Turning to `COCCCNC(=O)c1ccc(-n2ncc(-c3cc(C)nc(OC)c3)c2O)nc1` [Example 214, 6-(5-hydroxy-4-(2-methoxy-6-methylpyridin-4-yl)-1H-pyrazol-1-yl)-N-(3-methoxypropyl)nicotinamide], the IC50 in assay [1] was 0.174 µM. In addition, the EC50 in assay [2] was 2.82 µM.
For the molecule `N#Cc1ccc(-c2cnn(-c3ccc(C(=O)N4CCC[C@H]4CN4CCCC4)cn3)c2O)cc1` [Example 352, (S)-4-(5-hydroxy-1-(5-(2-(pyrrolidin-1-ylmethyl)pyrrolidine-1-carbonyl)pyridin-2-yl)-1H-pyrazol-4-yl)benzonitrile], the “PHD Inhibition (pIC50)” value in assay [1] stood at 7.47. In addition, the EC50 in assay [2] is 3.47 µM.
In the case of `N#Cc1ccc(-c2cnn(-c3ccc(C(=O)N[C@H]4CC[C@@H](O)CC4)cn3)c2O)cc1` [Example 164, 6-(4-(4-cyanophenyl)-5-hydroxy-1H-pyrazol-1-yl)-N-((1 s,4s)-4-hydroxycyclohexyl)nicotinamide], in assay [1], the “PHD Inhibition (pIC50)” value came to 7.5. In addition, the EC50 in assay [2] was 0.525 µM.
With `Cc1cc(C#N)ccc1-c1cnn(-c2ccc(C(=O)NCCC3CCCN3C)cn2)c1O` (stereo not drawn) [Example 102, 6-(4-(4-cyano-2-methylphenyl)-5-hydroxy-1H-pyrazol-1-yl)-N-(2-(1-methylpyrrolidin-2-yl)ethyl)nicotinamide], the “PHD Inhibition (pIC50)” value in assay [1] was 7.9. Besides, in assay [2], the EC50 was 0.0589 µM.
In the case of `Cc1c(-c2cnn(-c3ccc(C(=O)N4CC[C@H](N(C)C)C4)cn3)c2O)ccc(C#N)c1F` [Example 318, (S)-4-(1-(5-(3-(dimethylamino)pyrrolidine-1-carbonyl)pyridin-2-yl)-5-hydroxy-1H-pyrazol-4-yl)-2-fluoro-3-methylbenzonitrile], the “PHD Inhibition (pIC50)” value in assay [1] is on record as 8.35. Further, the EC50 in assay [2] was 0.708 µM.
In the same order, the values of `CCOCCNC(=O)c1ccc(-n2ncc(-c3ccc(C#N)cc3C)c2O)nc1` [Example 126, 6-(4-(4-cyano-2-methylphenyl)-5-hydroxy-1H-pyrazol-1-yl)-N-(2-ethoxyethyl)nicotinamide] are 7.24 and 0.38 µM.
In the same order, the values of `COCCCNC(=O)c1ccc(-n2ncc(-c3ccc(CC#N)cc3)c2O)nc1` [Example 217, 6-(4-(4-(cyanomethyl)phenyl)-5-hydroxy-1H-pyrazol-1-yl)-N-(3-methoxypropyl)nicotinamide] are 8.1 and 1.23 µM.
The like results for `Cc1cc(C#N)ccc1-c1cnn(-c2ccc(C(=O)N(C3CC3)C3CCN(C)CC3)cn2)c1O` [Example 420, 6-(4-(4-cyano-2-methylphenyl)-5-hydroxy-1H-pyrazol-1-yl)-N-cyclopropyl-N-(1-methylpiperidin-4-yl)nicotinamide] were, in that order, 7.87 and 0.537 µM.
Turning to `N#Cc1ccc(-c2cnn(-c3ccc(C(=O)NC4CC4)cn3)c2O)cc1` [Example 161, 6-(4-(4-cyanophenyl)-5-hydroxy-1H-pyrazol-1-yl)-N-cyclopropylnicotinamide], the “PHD Inhibition (pIC50)” value in assay [1] is listed as 7.18. In addition, the EC50 in assay [2] is 0.447 µM.
Turning to `CCN(C)CC1CCN(C(=O)c2ccc(-n3ncc(-c4ccc(C#N)cc4C)c3O)nc2)C1` (racemic) [Example 295, (+/−)-4-(1-(5-(3-((ethyl(methyl)amino)methyl)pyrrolidine-1-carbonyl)pyridin-2-yl)-5-hydroxy-1H-pyrazol-4-yl)-3-methylbenzonitrile], in assay [1], the IC50 was 0.0141 µM. In assay [2], the EC50 is 0.339 µM.
In the case of `COCCCNC(=O)c1ccc(-n2ncc(-c3ccc(C#N)c(OC)c3C)c2O)nc1` [Example 411, 6-(4-(4-cyano-3-methoxy-2-methylphenyl)-5-hydroxy-1H-pyrazol-1-yl)-N-(3-methoxypropyl)nicotinamide], the “PHD Inhibition (pIC50)” value in assay [1] amounted to 8.20. Further, the EC50 in assay [2] is 0.676 µM.
As to `Cc1cc(C#N)c(F)cc1-c1cnn(-c2ccc(C(=O)N3CCN(C)[C@@H](C)C3)cn2)c1O` [Example 400, (S)-4-(1-(5-(3,4-dimethylpiperazine-1-carbonyl)pyridin-2-yl)-5-hydroxy-1H-pyrazol-4-yl)-2-fluoro-5-methylbenzonitrile], in assay [1], the “PHD Inhibition (pIC50)” value was found to be 8.50. Besides, the EC50 in assay [2] was 1.66 µM.
For the molecule `COCC1CCN(C(=O)c2ccc(-n3ncc(-c4ccc(C#N)cc4C)c3O)nc2)C1` (stereo not drawn) [Example 252, 4-(5-hydroxy-1-(5-(3-(methoxymethyl)pyrrolidine-1-carbonyl)pyridin-2-yl)-1H-pyrazol-4-yl)-3-methylbenzonitrile], the “PHD Inhibition (pIC50)” value in assay [1] came to 8.3. Further, the EC50 in assay [2] was 0.263 µM.
For `O=C(NCC1CCOCC1)c1ccc(-n2ncc(-n3ccccc3=O)c2O)nc1` [Example 192, 6-(5-hydroxy-4-(2-oxopyridin-1(2H)-yl)-1H-pyrazol-1-yl)-N-((tetrahydro-2H-pyran-4-yl)methyl)nicotinamide], the “PHD Inhibition (pIC50)” value in assay [1] worked out at 6.84. Also, the EC50 in assay [2] is 50.1 µM.
Consider `COCCN(C(=O)c1ccc(-n2ncc(-c3ccc(C#N)cc3C)c2O)nc1)C1CCN(C)CC1` [Example 422, 6-(4-(4-cyano-2-methylphenyl)-5-hydroxy-1H-pyrazol-1-yl)-N-(2-methoxyethyl)-N-(1-methylpiperidin-4-yl)nicotinamide], for which the “PHD Inhibition (pIC50)” value in assay [1] is recorded as 7.87. In addition, the EC50 in assay [2] is 0.501 µM.
With `COCC[C@@H](C)NC(=O)c1ccc(-n2ncc(-c3ccc(C#N)cc3C)c2O)nc1` [Example 359, (R)-6-(4-(4-cyano-2-methylphenyl)-5-hydroxy-1H-pyrazol-1-yl)-N-(4-methoxybutan-2-yl)nicotinamide], the “PHD Inhibition (pIC50)” value in assay [1] is on record as 8.45. Besides, in assay [2], the EC50 was 0.537 µM.
In the same order, the values of `COCCCCNC(=O)c1ccc(-n2ncc(-c3ccc(C#N)cc3)c2O)nc1` [Example 235, 6-(4-(4-cyanophenyl)-5-hydroxy-1H-pyrazol-1-yl)-N-(4-methoxybutyl)nicotinamide] are 7.43 and 0.269 µM.
In the same order, the values of `COCCC(C)NC(=O)c1ccc(-n2ncc(-c3ccc(C#N)cc3C)c2O)nc1` (stereo not drawn) [Example 69, 6-(4-(4-cyano-2-methylphenyl)-5-hydroxy-1H-pyrazol-1-yl)-N-(4-methoxybutan-2-yl)nicotinamide] are 7.22 and 0.0891 µM.
Regarding `COc1cc(C#N)ccc1-c1cnn(-c2ccc(C(=O)NCC3CCOCC3)cn2)c1O` [Example 194, 6-(4-(4-cyano-2-methoxyphenyl)-5-hydroxy-1H-pyrazol-1-yl)-N-((tetrahydro-2H-pyran-4-yl)methyl)nicotinamide], the “PHD Inhibition (pIC50)” value in assay [1] came out at 7.3. The EC50 in assay [2] was 0.513 µM.
Consider `CCCNC(=O)c1ccc(-n2ncc(-c3ccc(C#N)cc3C)c2O)nc1` [Example 60, 6-(4-(4-cyano-2-methylphenyl)-5-hydroxy-1H-pyrazol-1-yl)-N-propylnicotinamide], for which, in assay [1], the “PHD Inhibition (pIC50)” value turned out to be 7.14. In assay [2], the EC50 was 0.2 µM.
Regarding `N#Cc1ccc(-c2cnn(-c3ccc(C(=O)NC4CCN(CCO)CC4)cn3)c2O)cc1` [Example 85, 6-(4-(4-cyanophenyl)-5-hydroxy-1H-pyrazol-1-yl)-N-(1-(2-hydroxyethyl)piperidin-4-yl)nicotinamide], in assay [1], the “PHD Inhibition (pIC50)” value is 6.94. The EC50 in assay [2] is 2.24 µM.
